The values below come from patent US10646596B2, “Near-infrared dye-bound transferrin, and contrast agent for photoacoustic imaging, including the near-infrared dye-bound transferrin” (CANON KABUSHIKI KAISHA, priority 2015, dated 2020).

The test system of data set [1] is colon 26 mouse colon cancer cells (subcutaneous tumor). Briefly: Evaluation of tumor-imaging contrast by fluorescence imaging in cancer-bearing mouse. The following applies: for fluorescent signal from the tumor site in fluorescence image: 24 hours after administration, FIGURE; for Imaging contrast (fluorescence intensity of tumor site / normal site): 24 hours after tail vein administration, 10 nmol dye per mouse (Alexa Fluor 680-TF (2.0): 31 nmol). Format: in vivo. From the text: In the fluorescence imaging experiment, a female outbred BALB/c Slc-nu/nu mouse (6-week-old at the time of purchase) (Japan SLC, Inc.) was used. For one week before the mouse was allowed to bear a cancer, normal diet and bed were used to habituate the mouse to an environment where the diet and drinking water were available ad libitum. Before about one week of the imaging experiment, 1×10^6 colon 26 mouse colon cancer cells (RIKEN) were subcutaneously injected into the femur area of the mouse to thereby prepare a cancer-bearing model mouse.
In order to evaluate the tumor-imaging contrast, the fluorescence intensity of a tumor site (measured area: 0.5×0.5 cm) and the fluorescence intensity (selected as a normal site, measured area: 0.5×0.5 cm) of the base of a leg were quantified from the fluorescence imaging data illustrated in FIGURE. The ratio of the intensities, namely, the value obtained by dividing the value of the fluorescence intensity of a tumor site by the value of the fluorescence intensity of a normal site, was expressed by a numeral value as an imaging contrast. […] A larger imaging contrast of the compound of the present invention than the imaging contrast of Alexa Fluor 680-TF (2.0) is considered to be due to the difference in tumor accumulation property, as described later. The number of the dye(s) labeled at which the highest imaging contrast was achieved was 4.8. On the other hand, when the number of the dye(s) labeled exceeded 8, a tendency of the imaging contrast to be reduced was observed.

Data set [2] has the same test system. The data set can be described thus: Tumor accumulation property (amount of dye in tumor) in cancer-bearing mouse. The class given is in vivo. Conditions: 24 hours after administration; for Tumor/blood ratio: tumor accumulation / residual rate in blood. From the text:
(§1) The amount of the dye in a tumor and the amount of the dye in blood with respect to each mouse in the tumor-imaging experiment performed in Example 4 were quantitatively determined to thereby evaluate the tumor accumulation property and the residual rate in blood of each compound.
(§2) The tumor accumulation property was expressed as the rate of dye transfer (% ID/g) to a tumor relative to the amount of the dye to be administered per gram of the tumor. First, the mouse was euthanized by a carbon dioxide gas after 24 hours of administration, and thereafter the tumor was surgically resected. The tumor was transferred to a plastic tube, an aqueous 1% Triton-X100 solution was added at 1.25 times the weight of the tumor, and the tumor was crushed using a plastic pestle. Next, DMSO was added at 20.25 times the weight of the tumor tissue. The fluorescence intensity of the solution of the tumor crushed, treated as described above, was measured in the plastic tube using IVIS (registered trademark) Imaging System 200 Series (XENOGEN) to thereby measure the amount of the dye in the tumor.
(§3) The tumor/blood ratio was calculated by the above measurements. The ratio corresponds to the ratio of the tumor accumulation property to the residual rate in blood, and a higher ratio means a higher tumor-imaging ability.

Data set [3] can be described thus: Residual rate in blood (amount of dye in blood) in cancer-bearing mouse. The following applies: 24 hours after administration, tail vein blood. Format: in vivo. The procedure: as §1
The residual rate in blood was expressed as the rate of dye transfer (% ID/g) to blood relative to the amount of the dye to be administered per gram of blood (1 mL when the specific gravity was assumed to be 1). A blood sample was taken from the tail vein of the mouse after 24 hours of administration, and the blood sample, 1% Triton (registered trademark) X-100 and DMSO were mixed in the plastic tube in a ratio of 2:9:9. The fluorescence intensity of the blood solution treated as described above was measured in the plastic tube using IVIS (registered trademark) Imaging System 200 Series (manufactured by XENOGEN) to thereby measure the amount of the dye in blood.

A short description of data set [4]: Tumor accumulation property (amount of dye in tumor) in cancer-bearing mouse. Format: in vivo. Conditions: mouse, 24 hours after administration.
Excerpt: as §1, §2, §3

For data set [5] the following is noted: in vivo; cited from earlier work.

Consider “iTF (8.4): Human transferrin covalently bound to ICG-Sulfo-OSu near-infrared dye; number of dye(s) labeled 8.4”, for which, in data set [1], the “fluorescent signal from the tumor site in fluorescence image” value (“fluorescent signal from the tumor site” below) was “the fluorescent signal from the tumor site was observed” and the “Imaging contrast (fluorescence intensity of tumor site / normal site)” value worked out at 2.3. Further, in data set [2], the “Rate of tumor accumulation” value is 0.8 % ID/g and the Tumor/blood ratio was determined as 1.9. In addition, the “Residual rate in blood” value in data set [3] is 0.4 % ID/g.
As to “iTF (2.0): Human transferrin covalently bound to ICG-Sulfo-OSu near-infrared dye; number of dye(s) labeled 2.0”, in data set [1], the “fluorescent signal from the tumor site” value is listed as “the fluorescent signal from the tumor site was observed” and the “Imaging contrast (fluorescence intensity of tumor site / normal site)” value is listed as 3.3. For the same compound, the Tumor/blood ratio in data set [2] is reported as 0.7. Besides, the “Residual rate in blood” value in data set [3] worked out at 2.8 % ID/g.
Taken in the same sequence, the figures for “iTF (4.8): Human transferrin covalently bound to ICG-Sulfo-OSu near-infrared dye; number of dye(s) labeled 4.8” were “the fluorescent signal from the tumor site was observed”, 4.1, 3.3 and 2.1 % ID/g.
Turning to `CC1(C)C(/C=C/C=C/C=C/C=C2/N(CCCCS(=O)(=O)[O-])c3ccc4ccccc4c3C2(C)C)=[N+](CCCCS(=O)(=O)[O-])c2ccc3ccccc3c21.[Na+]` [ICG, indocyanine green, reference compound], in data set [1], the “fluorescent signal from the tumor site” value is “no fluorescent signal was observed” and the “Imaging contrast (fluorescence intensity of tumor site / normal site)” value is 1.2. The tissue uptake at 24 h in data set [4] (tumor, read-out: Rate of tumor accumulation) is 0 %ID/g. Also, the Kp at 24 h in data set [4] (tumor accumulation / residual rate in blood, read-out: Tumor/blood ratio) worked out at 0.1. Also, the “Rate of tumor accumulation” value in data set [2] is listed as “zero”. The same compound gave a tissue uptake at 24 h in data set [3] (mouse, whole blood) of 0.1 %ID/g. Also, the half-life in blood result in data set [5] was “about several minutes”.
With “iTF (7.0): Human transferrin covalently bound to ICG-Sulfo-OSu near-infrared dye; number of dye(s) labeled 7.0”, in data set [1], the “fluorescent signal from the tumor site” value was “the fluorescent signal from the tumor site was observed” and the “Imaging contrast (fluorescence intensity of tumor site / normal site)” value was determined as 3.4. Also, the “Residual rate in blood” value in data set [3] amounted to 1.8 % ID/g.
As for “Alexa Fluor 680-TF (2.0): Transferrin From Human Serum, Alexa Fluor 680 Conjugate, Life Technologies, Product No. T35357, number of dye(s) labeled 2.0 [reference compound]”, the “Imaging contrast (fluorescence intensity of tumor site / normal site)” value in data set [1] is listed as 1.2. Further, in data set [2], the “Rate of tumor accumulation” value amounted to 0.6 % ID/g and the Tumor/blood ratio turned out to be 0.2. Moreover, the “Residual rate in blood” value in data set [3] amounted to 2.8 % ID/g.
As to “iTF (8.3): Human transferrin covalently bound to ICG-Sulfo-OSu near-infrared dye; number of dye(s) labeled 8.3”, in data set [1], the “fluorescent signal from the tumor site” value is “the fluorescent signal from the tumor site was observed” and the “Imaging contrast (fluorescence intensity of tumor site / normal site)” value was found to be 3.3. In addition, in data set [2], the Tumor/blood ratio is given as 2.9. Moreover, the “Residual rate in blood” value in data set [3] came out at 0.7 % ID/g.
